Measured values: paper PMC6136660 (Steroids, 2018)

Test system: white blood cells and subsets (lymphocytes, neutrophils, eosinophils)
Assay: Differential white blood cell counts (immune suppression), MAD
Format: in vivo, human
Conditions: for Eosinophils: mean; for Lymphocytes / Neutrophil cell counts / White blood cells counts: mean±SEM, in 10^9/L (unit assumed)
Procedure: A single dose of pharmacological glucocorticoids results in rapid changes in peripheral blood white cell counts, with increased neutrophils, and decreased lymphocytes. Increases of neutrophils are from release from peripheral tissues, whereas loss of lymphocytes is due to induction of apoptosis. Differential white blood cell counts were studied in all Phase 1 MAD subjects. […]
placebo. White blood cells and subsets (lymphocytes, neutrophils, eosinophils) were measured at screening, day -1, pre-dose on days 1-14, day 17, and at follow-up (recovery). Day 1 (pre-dose), Day 2 (24 hr after first dose), Day 14 and follow-up (recovery) time points are graphed […]

[1] = MAD 1.0 mg/kg, Day 1 predose, baseline
[2] = MAD 1.0 mg/kg, Day 17 (3 days after last dose)
[3] = MAD 1.0 mg/kg, Day 21 follow-up
[4] = MAD 1.0 mg/kg, Day -1, baseline
[5] = MAD 1.0 mg/kg, Screening, baseline
[6] = MAD 3.0 mg/kg, Day 1 predose, baseline
[7] = MAD 3.0 mg/kg, Day 17 (3 days after last dose)
[8] = MAD 3.0 mg/kg, Day 21 follow-up
[9] = MAD 3.0 mg/kg, Day -1, baseline
[10] = MAD 3.0 mg/kg, Screening, baseline
[11] = MAD 9.0 mg/kg, Day 1 predose, baseline
[12] = MAD 9.0 mg/kg, Day 17 (3 days after last dose)
[13] = MAD 9.0 mg/kg, Day 21 follow-up
[14] = MAD 9.0 mg/kg, Day -1, baseline
[15] = MAD 9.0 mg/kg, Screening, baseline
[16] = MAD 20.0 mg/kg, Day 1 predose, baseline
[17] = MAD 20.0 mg/kg, Day 17 (3 days after last dose)
[18] = MAD 20.0 mg/kg, Day 21 follow-up
[19] = MAD 20.0 mg/kg, Day -1, baseline
[20] = MAD 20.0 mg/kg, Screening, baseline

In the case of `C[C@@H]1C[C@H]2[C@@H]3CCC4=CC(=O)C=C[C@]4(C)C3=CC[C@]2(C)[C@@]1(O)C(=O)CO` [vamorolone], the Eosinophils [1] is reported as 0.17 10^9/L, the Lymphocytes [1] is reported as 1.9 ± 0.4 and the Neutrophil cell counts [1] is reported as 2.8 ± 1.0. The “White blood cells counts” value [1] was 5.2 ± 1.0, the Eosinophils (MAD 1.0 mg/kg, Day 2 predose) was 0.17 10^9/L and the Lymphocytes (MAD 1.0 mg/kg, Day 2 predose) was 1.8 ± 0.3. For the same compound, the Neutrophil cell counts (MAD 1.0 mg/kg, Day 2 predose) was 3.0 ± 0.9, the “White blood cells counts” value (MAD 1.0 mg/kg, Day 2 predose) was 5.3 ± 0.9 and the Eosinophils (MAD 1.0 mg/kg, Day 3 predose) was 0.17 10^9/L. The Lymphocytes (MAD 1.0 mg/kg, Day 3 predose) was 2.1 ± 0.2, the Neutrophil cell counts (MAD 1.0 mg/kg, Day 3 predose) was 2.8 ± 0.8 and the “White blood cells counts” value (MAD 1.0 mg/kg, Day 3 predose) was 5.4 ± 0.8. The Eosinophils (MAD 1.0 mg/kg, Day 7 predose) was 0.2 10^9/L, the Lymphocytes (MAD 1.0 mg/kg, Day 7 predose) was 2.1 ± 0.3 and the Neutrophil cell counts (MAD 1.0 mg/kg, Day 7 predose) was 3.1 ± 0.9. For the same compound, the “White blood cells counts” value (MAD 1.0 mg/kg, Day 7 predose) was 5.9 ± 0.7, the Eosinophils (MAD 1.0 mg/kg, Day 12 predose) was 0.2 10^9/L and the Lymphocytes (MAD 1.0 mg/kg, Day 12 predose) was 2.3 ± 0.3. For the same compound, the Neutrophil cell counts (MAD 1.0 mg/kg, Day 12 predose) was 3.2 ± 1.0, the “White blood cells counts” value (MAD 1.0 mg/kg, Day 12 predose) was 6.1 ± 0.9 and the Eosinophils (MAD 1.0 mg/kg, Day 14 predose) was 0.18 10^9/L. For the same compound, the Lymphocytes (MAD 1.0 mg/kg, Day 14 predose) was 2.3 ± 0.2, the Neutrophil cell counts (MAD 1.0 mg/kg, Day 14 predose) was 3.0 ± 1.0 and the “White blood cells counts” value (MAD 1.0 mg/kg, Day 14 predose) was 5.9 ± 0.9. For the same compound, the Eosinophils [2] was 0.17 10^9/L, the Lymphocytes [2] was 2.1 ± 0.4 and the Neutrophil cell counts [2] was 3.0 ± 0.8. For the same compound, the “White blood cells counts” value [2] was 5.7 ± 0.6, the Eosinophils [3] was 0.15 10^9/L and the Lymphocytes [3] was 2.0 ± 0.2. The Neutrophil cell counts [3] was 3.0 ± 0.6, the “White blood cells counts” value [3] was 5.5 ± 0.7 and the Eosinophils [4] was 0.18 10^9/L. For the same compound, the Lymphocytes [4] was 2.1 ± 0.5, the Neutrophil cell counts [4] was 2.8 ± 0.9 and the “White blood cells counts” value [4] was 5.5 ± 0.8. For the same compound, the Eosinophils [5] was 0.13 10^9/L, the Lymphocytes [5] was 1.8 ± 0.5 and the Neutrophil cell counts [5] was 3.6 ± 2.0. For the same compound, the “White blood cells counts” value [5] was 5.9 ± 2.2, the Eosinophils [6] was 0.23 10^9/L and the Lymphocytes [6] was 1.8 ± 0.6. For the same compound, the Neutrophil cell counts [6] was 3.4 ± 1.3, the “White blood cells counts” value [6] was 5.8 ± 2.0 and the Eosinophils (MAD 3.0 mg/kg, Day 2 predose) was 0.23 10^9/L. For the same compound, the Lymphocytes (MAD 3.0 mg/kg, Day 2 predose) was 2.0 ± 0.4, the Neutrophil cell counts (MAD 3.0 mg/kg, Day 2 predose) was 3.4 ± 1.2 and the “White blood cells counts” value (MAD 3.0 mg/kg, Day 2 predose) was 5.9 ± 1.5. The Eosinophils (MAD 3.0 mg/kg, Day 3 predose) was 0.2 10^9/L, the Lymphocytes (MAD 3.0 mg/kg, Day 3 predose) was 2.1 ± 0.7 and the Neutrophil cell counts (MAD 3.0 mg/kg, Day 3 predose) was 3.4 ± 1.4. The “White blood cells counts” value (MAD 3.0 mg/kg, Day 3 predose) was 6.1 ± 2.2, the Eosinophils (MAD 3.0 mg/kg, Day 7 predose) was 0.18 10^9/L and the Lymphocytes (MAD 3.0 mg/kg, Day 7 predose) was 2.4 ± 0.8. For the same compound, the Neutrophil cell counts (MAD 3.0 mg/kg, Day 7 predose) was 3.3 ± 0.9, the “White blood cells counts” value (MAD 3.0 mg/kg, Day 7 predose) was 6.3 ± 2.0 and the Eosinophils (MAD 3.0 mg/kg, Day 12 predose) was 0.18 10^9/L. For the same compound, the Lymphocytes (MAD 3.0 mg/kg, Day 12 predose) was 2.1 ± 0.7, the Neutrophil cell counts (MAD 3.0 mg/kg, Day 12 predose) was 3.2 ± 1.1 and the “White blood cells counts” value (MAD 3.0 mg/kg, Day 12 predose) was 6.0 ± 2.0. For the same compound, the Eosinophils (MAD 3.0 mg/kg, Day 14 predose) was 0.2 10^9/L, the Lymphocytes (MAD 3.0 mg/kg, Day 14 predose) was 2.2 ± 0.6 and the Neutrophil cell counts (MAD 3.0 mg/kg, Day 14 predose) was 3.0 ± 1.1. The “White blood cells counts” value (MAD 3.0 mg/kg, Day 14 predose) was 5.8 ± 1.8, the Eosinophils [7] was 0.17 10^9/L and the Lymphocytes [7] was 2.0 ± 0.5. For the same compound, the Neutrophil cell counts [7] was 4.0 ± 1.1, the “White blood cells counts” value [7] was 6.6 ± 1.6 and the Eosinophils [8] was 0.18 10^9/L. The Lymphocytes [8] was 1.8 ± 0.6, the Neutrophil cell counts [8] was 3.9 ± 1.4 and the “White blood cells counts” value [8] was 6.3 ± 1.6. For the same compound, the Eosinophils [9] was 0.2 10^9/L, the Lymphocytes [9] was 1.9 ± 0.6 and the Neutrophil cell counts [9] was 3.5 ± 1.4. For the same compound, the “White blood cells counts” value [9] was 6.1 ± 1.9, the Eosinophils [10] was 0.18 10^9/L and the Lymphocytes [10] was 2.0 ± 1.0. For the same compound, the Neutrophil cell counts [10] was 3.5 ± 1.8, the “White blood cells counts” value [10] was 6.2 ± 2.9 and the Eosinophils [11] was 0.1 10^9/L. For the same compound, the Lymphocytes [11] was 1.8 ± 0.4, the Neutrophil cell counts [11] was 2.9 ± 0.9 and the “White blood cells counts” value [11] was 5.2 ± 1.1. The Eosinophils (MAD 9.0 mg/kg, Day 2 predose) was 0.13 10^9/L, the Lymphocytes (MAD 9.0 mg/kg, Day 2 predose) was 2.5 ± 0.7 and the Neutrophil cell counts (MAD 9.0 mg/kg, Day 2 predose) was 3.7 ± 1.1. The “White blood cells counts” value (MAD 9.0 mg/kg, Day 2 predose) was 6.7 ± 1.2, the Eosinophils (MAD 9.0 mg/kg, Day 3 predose) was 0.1 10^9/L and the Lymphocytes (MAD 9.0 mg/kg, Day 3 predose) was 2.7 ± 0.7. For the same compound, the Neutrophil cell counts (MAD 9.0 mg/kg, Day 3 predose) was 3.6 ± 0.7, the “White blood cells counts” value (MAD 9.0 mg/kg, Day 3 predose) was 6.8 ± 1.0 and the Eosinophils (MAD 9.0 mg/kg, Day 7 predose) was 0.1 10^9/L. For the same compound, the Lymphocytes (MAD 9.0 mg/kg, Day 7 predose) was 2.6 ± 0.6, the Neutrophil cell counts (MAD 9.0 mg/kg, Day 7 predose) was 3.4 ± 1.0 and the “White blood cells counts” value (MAD 9.0 mg/kg, Day 7 predose) was 6.6 ± 1.3. The Eosinophils (MAD 9.0 mg/kg, Day 12 predose) was 0.12 10^9/L, the Lymphocytes (MAD 9.0 mg/kg, Day 12 predose) was 2.8 ± 0.6 and the Neutrophil cell counts (MAD 9.0 mg/kg, Day 12 predose) was 3.5 ± 0.9. The “White blood cells counts” value (MAD 9.0 mg/kg, Day 12 predose) was 6.8 ± 0.9, the Eosinophils (MAD 9.0 mg/kg, Day 14 predose) was 0.13 10^9/L and the Lymphocytes (MAD 9.0 mg/kg, Day 14 predose) was 2.6 ± 0.6. For the same compound, the Neutrophil cell counts (MAD 9.0 mg/kg, Day 14 predose) was 3.6 ± 1.0, the “White blood cells counts” value (MAD 9.0 mg/kg, Day 14 predose) was 6.8 ± 1.3 and the Eosinophils [12] was 0.08 10^9/L. For the same compound, the Lymphocytes [12] was 1.9 ± 0.5, the Neutrophil cell counts [12] was 3.1 ± 0.7 and the “White blood cells counts” value [12] was 5.5 ± 0.7. For the same compound, the Eosinophils [13] was 0.12 10^9/L, the Lymphocytes [13] was 1.8 ± 0.7 and the Neutrophil cell counts [13] was 2.9 ± 1.0. The “White blood cells counts” value [13] was 5.2 ± 1.1, the Eosinophils [14] was 0.12 10^9/L and the Lymphocytes [14] was 2.1 ± 0.7. For the same compound, the Neutrophil cell counts [14] was 2.9 ± 0.6, the “White blood cells counts” value [14] was 5.5 ± 1.1 and the Eosinophils [15] was 0.1 10^9/L. For the same compound, the Lymphocytes [15] was 1.7 ± 0.5, the Neutrophil cell counts [15] was 3.0 ± 1.0 and the “White blood cells counts” value [15] was 5.2 ± 1.3. For the same compound, the Eosinophils [16] was 0.28 10^9/L, the Lymphocytes [16] was 2.2 ± 0.6 and the Neutrophil cell counts [16] was 3.4 ± 1.1. For the same compound, the “White blood cells counts” value [16] was 6.3 ± 1.4, the Eosinophils (MAD 20.0 mg/kg, Day 2 predose) was 0.17 10^9/L and the Lymphocytes (MAD 20.0 mg/kg, Day 2 predose) was 2.9 ± 0.8. For the same compound, the Neutrophil cell counts (MAD 20.0 mg/kg, Day 2 predose) was 4.5 ± 1.2, the “White blood cells counts” value (MAD 20.0 mg/kg, Day 2 predose) was 8.0 ± 1.3 and the Eosinophils (MAD 20.0 mg/kg, Day 3 predose) was 0.15 10^9/L. The Lymphocytes (MAD 20.0 mg/kg, Day 3 predose) was 2.9 ± 0.7, the Neutrophil cell counts (MAD 20.0 mg/kg, Day 3 predose) was 4.3 ± 1.2 and the “White blood cells counts” value (MAD 20.0 mg/kg, Day 3 predose) was 7.9 ± 0.7. For the same compound, the Eosinophils (MAD 20.0 mg/kg, Day 7 predose) was 0.15 10^9/L, the Lymphocytes (MAD 20.0 mg/kg, Day 7 predose) was 3.2 ± 0.9 and the Neutrophil cell counts (MAD 20.0 mg/kg, Day 7 predose) was 4.4 ± 0.7. For the same compound, the “White blood cells counts” value (MAD 20.0 mg/kg, Day 7 predose) was 8.2 ± 1.0, the Eosinophils (MAD 20.0 mg/kg, Day 12 predose) was 0.12 10^9/L and the Lymphocytes (MAD 20.0 mg/kg, Day 12 predose) was 3.2 ± 0.4. For the same compound, the Neutrophil cell counts (MAD 20.0 mg/kg, Day 12 predose) was 4.4 ± 0.4, the “White blood cells counts” value (MAD 20.0 mg/kg, Day 12 predose) was 8.3 ± 0.5 and the Eosinophils (MAD 20.0 mg/kg, Day 14 predose) was 0.16 10^9/L. The Lymphocytes (MAD 20.0 mg/kg, Day 14 predose) was 3.1 ± 0.4, the Neutrophil cell counts (MAD 20.0 mg/kg, Day 14 predose) was 4.6 ± 0.4 and the “White blood cells counts” value (MAD 20.0 mg/kg, Day 14 predose) was 8.5 ± 0.4. For the same compound, the Eosinophils [17] was 0.16 10^9/L, the Lymphocytes [17] was 2.2 ± 0.3 and the Neutrophil cell counts [17] was 4.0 ± 0.3. For the same compound, the “White blood cells counts” value [17] was 6.8 ± 0.2, the Eosinophils [18] was 0.26 10^9/L and the Lymphocytes [18] was 2.2 ± 0.3. For the same compound, the Neutrophil cell counts [18] was 4.0 ± 0.3, the “White blood cells counts” value [18] was 6.8 ± 0.4 and the Eosinophils [19] was 0.32 10^9/L. The Lymphocytes [19] was 2.6 ± 0.5, the Neutrophil cell counts [19] was 3.9 ± 1.1 and the “White blood cells counts” value [19] was 7.3 ± 1.1. The Eosinophils [20] was 0.25 10^9/L, the Lymphocytes [20] was 2.0 ± 0.5 and the Neutrophil cell counts [20] was 3.5 ± 1.2. For the same compound, the “White blood cells counts” value [20] was 6.1 ± 1.1 and the “white blood cell counts” value (any MAD dose group) was “No significant changes”.
